In one data set the test system is Alternaria solani. The data set can be described thus: Test F: tomato early blight, preventive spray on tomato seedlings, visual disease rating. Conditions: 40 ppm (marked *); 100 = 100 % disease control, 0 = no disease control relative to controls.
In a further data set the test system is Phytophthora infestans. The data set is classed as in vivo. Conditions: 40 ppm (marked *); 100 = 100 % disease control, 0 = no disease control relative to controls.
The test system of the next data set is Septoria tritici. The data set can be described thus: Test D: wheat leaf blotch, preventive spray on wheat seedlings, visual disease rating. The data set is classed as in vivo. Conditions: 40 ppm (marked *); 100 = 100 % disease control, 0 = no disease control relative to controls. The text has this:
A dash (−) indicates no test results.

For data set [1], the system named is Erysiphe graminis f. sp. tritici. The experiment in a line: Test A: wheat powdery mildew, preventive spray on wheat seedlings, visual disease rating. The settings on record: 40 ppm (marked *); 100 = 100 % disease control, 0 = no disease control relative to controls.
Another data set has as its system Plasmopara viticola. The experiment in a line: Test I: grape downy mildew, spray on grape seedlings after inoculation, visual disease rating. The settings on record: 40 ppm (marked *); 100 = 100 % disease control, 0 = no disease control relative to controls.
The next data set concerns Septoria nodorum. The data set can be described thus: Test C: wheat glume blotch, preventive spray on wheat seedlings, visual disease rating. Conditions: 40 ppm (marked *); 100 = 100 % disease control, 0 = no disease control relative to controls.
For the next data set, the system named is Botrytis cinerea. The experiment in a line: Test E: tomato Botrytis, preventive spray on tomato seedlings, visual disease rating. Conditions: 100 = 100 % disease control, 0 = no disease control relative to controls.
The next data set has as its system Rhizoctonia oryzae. The experiment in a line: Test G: turf brown patch, preventive spray on creeping bent grass seedlings, visual disease rating. Conditions: 40 ppm (marked *); 100 = 100 % disease control, 0 = no disease control relative to controls.
The test system of data set [2] is Puccinia recondita f. sp. tritici. The data set can be described thus: Test B: wheat leaf rust, preventive spray on wheat seedlings, visual disease rating. The settings on record: 40 ppm (marked *); 100 = 100 % disease control, 0 = no disease control relative to controls.

Molecules are shown by their SMILES. Marks after values point to notes of the source that are not given here.

Source text for Botrytis cinerea: General protocol for preparing test suspensions for Tests A-I: The test compounds were first dissolved in acetone in an amount equal to 3% of the final volume and then suspended at the desired concentration (in ppm) in acetone and purified water (50/50 mix) containing 250 ppm of the surfactant Trem® 014 (polyhydric alcohol esters). The resulting test suspensions were then used in Tests A-I. Spraying a 200 ppm test suspension to the point of run-off on the test plants was the equivalent of a rate of 500 g/ha.
The test suspension was sprayed to the point of run-off on tomato seedlings. The following day the seedlings were inoculated with a spore suspension of Botrytis cinerea (the causal agent of tomato Botrytis) and incubated in saturated atmosphere at 20° C. for 48 h, and then moved to a growth chamber at 24° C. for 3 additional days, after which time visual disease ratings were made.
(§1) All results are for 200 ppm except where followed by “*” which indicates 40 ppm.
Source text for Plasmopara viticola: General protocol for preparing test suspensions for Tests A-I: The test compounds were first dissolved in acetone in an amount equal to 3% of the final volume and then suspended at the desired concentration (in ppm) in acetone and purified water (50/50 mix) containing 250 ppm of the surfactant Trem® 014 (polyhydric alcohol esters). The resulting test suspensions were then used in Tests A-I. Spraying a 200 ppm test suspension to the point of run-off on the test plants was the equivalent of a rate of 500 g/ha. (An asterisk “*” next to the rating value indicates a 40 ppm test suspension.)
Grape seedlings were inoculated with a spore suspension of Plasmopara viticola (the causal agent of grape downy mildew) and incubated in a saturated atmosphere at 20° C. for 24 h. After a short drying period, the test suspension was sprayed to the point of run-off on the grape seedlings and then moved to a growth chamber at 20° C. for 6 days, after which time the test units were placed back into a saturated atmosphere at 20° C. for 24 h. Upon removal, visual disease ratings were made.
as §1
Procedure for Rhizoctonia oryzae: The test suspension was sprayed to the point of run-off on creeping bent grass seedlings. The following day the seedlings were inoculated with a spore suspension of Rhizoctonia oryzae (the causal agent of turf brown patch) and incubated in a saturated atmosphere at 27° C. for 48 h, and then moved to a growth chamber at 27° C. for 3 days, after which time visual disease ratings were made.
(§2) A dash (−) indicates no test results. All results are for 200 ppm except where followed by “*” which indicates 40 ppm.
Procedure for Septoria nodorum: (An asterisk “*” next to the rating value indicates a 40 ppm test suspension.)
The test suspension was sprayed to the point of run-off on wheat seedlings. The following day the seedlings were inoculated with a spore suspension of Septoria nodorum (the causal agent of wheat glume blotch) and incubated in a saturated atmosphere at 20° C. for 48 h, and then moved to a growth chamber at 20° C. for 7 days, after which time visual disease ratings were made.
as §2

For the compound `CN1O[C@@](C)(c2cnccn2)C[C@@H]1c1ccc(-c2ccccc2)cc1` (relative stereo) [Compound 22], in the data set on Alternaria solani, the “Test F disease control rating” value was 0* %. The “Test H disease control rating” value in the data set on Phytophthora infestans was 0* %. The “Test D disease control rating” value with Septoria tritici is reported as 97* %. The “Test A disease control rating” value in data set [1] is 86* %. Also, the “Test I disease control rating” value in the data set on Plasmopara viticola is given as 0* %. In addition, the “Test C disease control rating” value in the data set on Septoria nodorum is 0* %. Besides, the “Test E disease control rating” value with Botrytis cinerea (40 ppm (marked *)) is on record as 0* %. Also, in the data set on Rhizoctonia oryzae, the “Test G disease control rating” value was 0* %. The “Test B disease control rating” value in data set [2] was 0* %.

`CN1O[C@@](c2cccnc2)(C(F)(F)F)C[C@@H]1c1ccc(I)cc1` (relative stereo) [Compound 27, rel-3-[(3R,5S)-3-(4-iodophenyl)-2-methyl-5-(trifluoromethyl)-5-isoxazolidinyl]pyridine] came in with a melting point of 80 to 83 °C. The “Test F disease control rating” value in the data set on Alternaria solani is recorded as 100* %. Further, in the data set with Phytophthora infestans, the “Test H disease control rating” value was 0* %. In addition, the “Test D disease control rating” value with Septoria tritici was 95* %. The “Test A disease control rating” value in data set [1] is given as 100* %. Besides, the “Test I disease control rating” value with Plasmopara viticola is on record as 0* %. In addition, the “Test C disease control rating” value with Septoria nodorum was 100* %. For the same compound, the “Test E disease control rating” value in the data set on Botrytis cinerea (40 ppm (marked *)) was 0* %. Moreover, the “Test G disease control rating” value in the data set on Rhizoctonia oryzae is 0* %. For the same compound, in data set [2], the “Test B disease control rating” value is recorded as 0* %.

As to `CN1O[C@](c2cccnc2)(C(F)(F)F)C[C@@H]1c1ccc(I)cc1` (relative stereo) [Compound 28, rel-3-[(3R,5R)-3-(4-iodophenyl)-2-methyl-5-(trifluoromethyl)-5-isoxazolidinyl]pyridine], the melting point fell in the range of 108 to 110 °C. The “Test F disease control rating” value in the data set on Alternaria solani is reported as 0* %. Further, the “Test H disease control rating” value in the data set on Phytophthora infestans is 0* %. Besides, the “Test D disease control rating” value with Septoria tritici is 88* %. Also, in data set [1], the “Test A disease control rating” value is 99* %. Moreover, the “Test I disease control rating” value in the data set with Plasmopara viticola is 0* %. Besides, the “Test C disease control rating” value in the data set on Septoria nodorum is on record as 33* %. Moreover, the “Test E disease control rating” value in the data set on Botrytis cinerea (40 ppm (marked *)) is on record as 0* %. Further, in the data set on Rhizoctonia oryzae, the “Test G disease control rating” value is 0* %. Further, the “Test B disease control rating” value in data set [2] is 0* %.

`CN1O[C@@](C)(c2cccnc2)C[C@@H]1c1ccc(-n2ccc(C(F)(F)F)n2)cc1` (relative stereo) [Compound 36, rel-3-[(3R,5R)-2,5-dimethyl-3-[4-[3-(trifluoromethyl)-1H-pyrazol-1-yl]phenyl]-5-isoxazolidinyl]pyridine]: the “Test F disease control rating” value with Alternaria solani was 23* %. Further, in the data set with Phytophthora infestans, the “Test H disease control rating” value was 0* %. In the data set on Septoria tritici, the “Test D disease control rating” value is 73* %. Moreover, the “Test A disease control rating” value in data set [1] is 79* %. In addition, the “Test I disease control rating” value in the data set with Plasmopara viticola is 0* %. Also, the “Test C disease control rating” value in the data set on Septoria nodorum is 0* %. In addition, the “Test E disease control rating” value in the data set with Botrytis cinerea (40 ppm (marked *)) is 22* %. Besides, the “Test G disease control rating” value in the data set with Rhizoctonia oryzae is on record as 7* %. Further, in data set [2], the “Test B disease control rating” value is reported as 0* %.

`CN1O[C@](C)(c2cccnc2)C[C@@H]1c1ccc(-n2cc(Br)cn2)cc1` (relative stereo) [Compound 37, rel-3-[(3R,5S)-3-[4-(4-bromo-1H-pyrazol-1-yl)phenyl]-2,5-dimethyl-5-isoxazolidinyl]pyridine]: the “Test F disease control rating” value in the data set with Alternaria solani was 93* %. The “Test H disease control rating” value with Phytophthora infestans was 0* %. Also, the “Test D disease control rating” value with Septoria tritici is given as 99* %. In data set [1], the “Test A disease control rating” value is recorded as 95* %. Besides, the “Test I disease control rating” value in the data set with Plasmopara viticola is given as 0* %. The “Test C disease control rating” value in the data set with Septoria nodorum is 99* %. The “Test E disease control rating” value in the data set on Botrytis cinerea (200 ppm) is 94%. For the same compound, the “Test G disease control rating” value in the data set with Rhizoctonia oryzae is recorded as 0* %. The “Test B disease control rating” value in [2] is 74* %.

On to `CN1OC(C)(c2cccnc2)CC1c1ccc(-n2cc(Br)cn2)cc1` (centres unmarked) [Compound 38], for which, in the data set with Alternaria solani, the “Test F disease control rating” value is on record as 42* %. Besides, the “Test H disease control rating” value in the data set on Phytophthora infestans was 0* %. For the same compound, the “Test D disease control rating” value with Septoria tritici is reported as 77* %. For the same compound, the “Test A disease control rating” value in data set [1] is given as 0* %. In the data set with Plasmopara viticola, the “Test I disease control rating” value is reported as 0* %. Also, in the data set with Septoria nodorum, the “Test C disease control rating” value was 0* %. In addition, the “Test E disease control rating” value with Botrytis cinerea (40 ppm (marked *)) was 0* %. Also, the “Test G disease control rating” value in the data set with Rhizoctonia oryzae is on record as 0* %. Also, in data set [2], the “Test B disease control rating” value is given as 0* %.

The record behind these values is patent publication US20090270407A1, “FUNGICIDAL ISOXAZOLIDINES” (E. I. DU PONT DE NEMOURS AND COMPANY, priority 2008, published 2009).
